According to PubChem BioAssay AID489040 (Sanford-Burnham Center for Chemical Genomics, 2010):
Calls of active or inactive are those of the source.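 Rule for the calls: active = mean half-maximal activating concentration from the dose-response fit at or below a set limit; inactive = the rest.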

Target: CHO-XBP1 luciferase reporter, IRE1-XBP1 UPR activation
Test: activators of IRE1-XBP1 UPR arm, dose response, counter-screen for apoptotic UPR arm activators, CHO-XBP1 cells, luminescence (AID 489040);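 note: reporter read after six hours of compound exposure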

Question: How did the EC50 turn out when `C=CCN=c1scc(-c2ccco2)n1/N=C/c1ccc(O)c(O)c1O` was run?
Answer: > 80 µM (inactive)

Question: `COCCN1CSC(=S)N(Cc2ccco2)C1` was tested. Which EC50 did it give?
Answer: > 80 µM (inactive)

Question: Which EC50 does the source give for `Cc1cc(C(=O)CCl)c(C)n1CC1COc2ccccc2O1` (centres undefined) here?
Answer: > 80 µM (inactive)

Question: How did the EC50 turn out when `Cc1[nH]c2ccccc2c1CN1CCC(Cc2ccccc2)CC1` was run?
Answer: > 80 µM (inactive)

Question: How did the EC50 turn out when `CCOc1cccc(C(=O)Nc2cccc(-c3nnc(-c4ccc(C)cc4)o3)c2)c1` was run?
Answer: > 80 µM (inactive)

Question: For `N#CC12COC3(CCCCC3C1(C#N)C#N)OC2=N` (centres undefined), which EC50 is on record?
Answer: > 80 µM (inactive)

Question: Which EC50 does the source give for `CSc1nnc(NC(=O)c2nc(S(=O)(=O)Cc3ccccc3)ncc2Cl)s1` here?
Answer: > 80 µM (inactive)

Question: Which EC50 does the source give for `Cc1cc(C(=O)CCl)c(C)n1Cc1ccco1` here?
Answer: > 80 µM (inactive)

Question: Which EC50 does the source give for `S=C(Nc1ccccn1)c1ccccn1` here?
Answer: > 80 µM (inactive)

Question: With `CCc1cccc(CC)c1NC(=O)/C(C#N)=C/c1ccccc1C(F)(F)F` as the compound, how does the EC50 read?
Answer: > 80 µM (inactive)

Question: How did the EC50 turn out when `CCOC(=O)CSc1cccc2cccnc12` was run?
Answer: > 80 µM (inactive)

Question: How did the EC50 turn out when `COC(=O)c1cc(=O)n(Cc2ccc3c(c2)OCO3)c(=Nc2ccc(F)c(Cl)c2)s1` was run?
Answer: > 80 µM (inactive)

Question: Which EC50 does the source give for `COc1cc(CN2CCN(c3cc(C)ccc3C)CC2)ccc1O` here?
Answer: > 80 µM (inactive)

Question: For `O=S(=O)(Nc1cccc2cccnc12)c1ccc(S(=O)(=O)N2CCCC2)cc1`, which EC50 is on record?
Answer: > 80 µM (inactive)

Question: Which EC50 does the source give for `Cn1nnnc1Sc1ncnc2scc(-c3cc4ccccc4o3)c12` here?
Answer: > 80 µM (inactive)

Question: `CCOC(=O)c1c(C)oc2c1c(C(c1ccccc1)N1CCOCC1)c(O)c1ccccc12` (centres undefined) was tested. Which EC50 did it give?
Answer: > 80 µM (inactive)

Question: With `Fc1ccc(NC(=S)Nc2nccs2)cc1` as the compound, how does the EC50 read?
Answer: > 80 µM (inactive)

Question: With `Cc1ccc(C(C[N+](=O)[O-])n2nc(C)cc2C)cc1` (centres undefined) as the compound, how does the EC50 read?
Answer: > 80 µM (inactive)

Question: With `COc1ccc(/C=C\c2nc(=O)c3ccccc3o2)cc1` as the compound, how does the EC50 read?
Answer: > 80 µM (inactive)

Question: With `O=C(/C=C/c1ccc([N+](=O)[O-])cc1)/C=C/c1ccco1` as the compound, how does the EC50 read?
Answer: > 80 µM (inactive)

Question: With `CC1(C)C=Cc2c(c3c(c4c(=O)c(-c5ccc(O)cc5)coc24)OC(C)(C)CC3)O1` as the compound, how does the EC50 read?
Answer: inactive

Question: With `CCc1nn(-c2cc(Oc3cccc4ccccc34)nc(-c3ccccc3)n2)c(N)c1C#N` as the compound, how does the EC50 read?
Answer: inactive

Question: Which EC50 does the source give for `COCc1cc(C)nc(OCC(=O)N/N=C/c2ccc(-c3cc([N+](=O)[O-])ccc3Cl)o2)c1C#N` here?
Answer: 13.2 µM

Question: `CCCN1Cc2cccc(C(=O)Nc3ccc(-c4nc5ccccc5[nH]4)cc3)c2C1=O` was tested. Which EC50 did it give?
Answer: > 80 µM (inactive)

Question: Which EC50 does the source give for `CCOC(=O)C1=C(CCl)NC(=O)NC1c1ccc2c(c1)OCO2` (centres undefined) here?
Answer: > 80 µM (inactive)

Question: For `O=C(CSc1cccc2cccnc12)N/N=C/c1cccnc1`, which EC50 is on record?
Answer: > 80 µM (inactive)

Question: Which EC50 does the source give for `C=C1C(=O)C=C[C@]2(C)C[C@@H]3OC(=O)[C@](C)(O)[C@H]3C[C@@H]12` here?
Answer: > 80 µM (inactive)

Question: With `O=C1NC(=O)C(=Cc2ccc(-c3ccc(Cl)cc3)o2)C(=O)N1` as the compound, how does the EC50 read?
Answer: > 80 µM (inactive)

Question: How did the EC50 turn out when `CCOc1ccc2nc(SC3CC(=O)N(c4ccc(C)cc4)C3=O)sc2c1` (centres undefined) was run?
Answer: > 80 µM (inactive)

Question: `COc1ccc(C(=O)C(CN2CCOCC2)c2ccccc2)cc1` (centres undefined) was tested. Which EC50 did it give?
Answer: > 80 µM (inactive)

Question: With `COc1ccc(O)c(/C=N/Nc2nc(Nc3ccccc3)nc(-n3nc(C)cc3C)n2)c1` as the compound, how does the EC50 read?
Answer: > 80 µM (inactive)

Question: For `Cn1nc([N+](=O)[O-])c(C(C#N)c2ccccn2)c(Cl)c1=O` (centres undefined), which EC50 is on record?
Answer: > 80 µM (inactive)

Question: How did the EC50 turn out when `COc1cc(CNc2ccc3[nH]c(=O)[nH]c3c2)cc(Br)c1OCc1ccccc1F` was run?
Answer: > 80 µM (inactive)

Question: How did the EC50 turn out when `Cc1cc(C(=O)CCl)c(C)n1CCc1ccccc1` was run?
Answer: > 80 µM (inactive)

Question: With `Cc1cc(C)cc(NC(=O)/C(C#N)=C/c2cn(CC(=O)NCc3ccco3)c3ccccc23)c1` as the compound, how does the EC50 read?
Answer: > 80 µM (inactive)

Question: How did the EC50 turn out when `CC(=O)c1cccc(N=Cc2c(O)c3ccccc3oc2=O)c1` was run?
Answer: 15.4 µM

Question: How did the EC50 turn out when `CCCN1C/C(=C/c2ccc3c(c2)OCO3)C(=O)/C(=C/c2ccc3c(c2)OCO3)C1` was run?
Answer: > 80 µM (inactive)

Question: How did the EC50 turn out when `C=CCNC(=S)N/N=C(\C)c1ccccn1` was run?
Answer: > 80 µM (inactive)

Question: How did the EC50 turn out when `COc1ccc(CCNC(=O)c2coc(=O)c(Br)c2)cc1` was run?
Answer: > 80 µM (inactive)
